Square brackets hold non-standard residues; d marks the D form. Peptide text beside a SMILES is read from it. dPip = O=C(O)[C@H]1CCCCN1; Nphe = O=C(O)CNCc1ccccc1; Nleu = CC(C)CNCC(=O)O
Experiments:
human plasma [1] = assay: Human plasma anticoagulation, thrombin time (TT); details: concentration required to double the thrombin time, linear extrapolation
Protocol: (§1) Dog plasma and rat plasma is obtained from conscious mixed-breed hounds (either sex, Hazelton-LRE, Kalamazoo, Mich., U.S.A.) or from anesthetized male Sprague-Dawley rats (Harlan Sprague-Dawley, Inc., Indianapolis, Ind., U.S.A.) by venipuncture into 3.8 percent citrate. Fibrinogen is prepared from in-date ACD human blood as the fraction I-2 according to previous procedures and specifications. Smith, Biochem. J., 185, 1-11 (1980); and Smith, et al., Biochemistry, 11, 2958-2967 (1972). Human fibrinogen is also purchased as 98 percent pure/plasmin free from American Diagnostica, Greenwich, Conn. Coagulation reagents ACTIN, Thromboplastin, and Human plasma are from Baxter Healthcare Corp., Dade Division, Miami, Fla. Bovine thrombin from Parke-Davis ([…], Mich.) is used for coagulation assays in plasma.
(§2) Coagulation assay procedures are as previously described. Smith, et al., Thrombosis Research, 50, 163-174 (1988). A CoAScreener coagulation instrument (American LABor, Inc.) is used for all coagulation assay measurements. The prothrombin time (PT) is measured by adding 0.05 mL saline and 0.05 mL Thromboplastin-C reagent to 0.05 mL test plasma. The activated partial thromboplastin time (APTT) is measured by incubation of 0.05 mL test plasma with 0.05 mL Actin reagent for 120 seconds followed by 0.05 mL CaCl2 (0.02 M). The thrombin time (TT) is measured by adding 0.05 mL saline and 0.05 mL thrombin (10 NIH units/mL) to 0.05 mL test plasma. The compounds of formula I are added to human or animal plasma over a wide range of concentrations to determine prolongation effects on the APTT, PT, and TT assays. Linear extrapolations are performed to estimate the concentrations required to double the clotting time for each assay.

Bovine trypsin = target: T1, Bovine trypsin (Bos taurus, UniProt P00760); assay: Serine protease selectivity, Kass, trypsin chromogenic assay; format: biochemical; details: apparent association constant
T1 construct: purchased Worthington Biochemicals, Freehold, N.J
T1 sequence (P00760 24-246): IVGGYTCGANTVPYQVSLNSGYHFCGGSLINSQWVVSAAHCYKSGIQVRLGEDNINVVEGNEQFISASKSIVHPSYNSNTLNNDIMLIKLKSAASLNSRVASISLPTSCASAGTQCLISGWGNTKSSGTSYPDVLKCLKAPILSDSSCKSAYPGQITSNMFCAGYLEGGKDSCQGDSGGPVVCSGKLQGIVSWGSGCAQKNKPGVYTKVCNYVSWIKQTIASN
Protocol: (§3) By substantially following the procedures described above for human thrombin, and using other human blood coagulation system serine proteases and proteases of the fibrinolytic system with the appropriate chromogenic substrates, identified below, selectivity of the compounds of the present invention with respect to the coagulation factor serine proteases and with respect to the fibrinolytic system serine proteases are evaluated as well as their substantial lack of interference with serine proteases of the fibrinolytic system. Thrombin inhibitors preferably should spare fibrinolysis induced by urokinase, tissue plasminogen activator (t-PA) and streptokinase. This would be important to the therapeutic use of such agents as an adjunct to streptokinase, t-PA or urokinase thrombolytic therapy and to the use of such agents as an endogenous fibrinolysis-sparing (with respect to t-PA and urokinase) antithrombotic agent. In addition to the lack of interference with the amidase activity of the fibrinolytic proteases, such fibrinolytic system sparing can be studied by the use of human plasma clots and their lysis by the respective fibrinolytic plasminogen activators.
(§4) Human factors X, Xa, IXa, XIa, and XIIa are purchased from Enzyme Research Laboratories, South Bend, Ind.; human urokinase from Leo Pharmaceuticals, Denmark; and recombinant activated Protein C (aPC) is prepared at Eli Lilly and Co. substantially according to U.S. Pat. No. 4,981,952 incorporated by reference herein in its entirety. Chromogenic substrates: N--Benzoyl--Ile--Glu--Gly--Arg--p--nitroanilide (for factor Xa); N--Cbz--D--Arg--Gly--Arg--p--nitroanilide (for factor IXa assay as the factor Xa substrate); Pyroglutamyl--Pro--Arg--p--nitroanilide (for Factor XIa and for aPC); H--D--Pro--Phe--Arg--p--nitroanilide (for factor XIIa); and Pyroglutamyl--Gly--Arg--p--nitroanilide (for urokinase); are purchased from KabiVitrum, Stockholm, Sweden, or from Midwest Biotech, Fishers, Indiana. Bovine trypsin is purchased from Worthington Biochemicals, Freehold, N.J., and human plasma kallikrein from Kabi Vitrum, Stockholm, Sweden. Chromogenic substrate H--D--Pro--Phe--Arg--p--nitroanilide for plasma kallikrein is purchased from Kabi Vitrum, Stockholm, Sweden. N--Benzoyl--Phe--Val--Arg--p--nitroanilide, the substrate for human thrombin and for trypsin, is synthesized according to procedures described above for the compounds of the present invention, using known methods of peptide coupling from commercially available reactants or purchased from Midwest Biotech, Fishers, Ind.

human plasma [2] = assay: Human plasma anticoagulation, activated partial thromboplastin time (APTT); details: concentration required to double the APTT, linear extrapolation
Protocol: as §1, §2

human plasma [3] = assay: Human plasma anticoagulation, prothrombin time (PT); details: concentration required to double the PT, linear extrapolation
Protocol: as §1, §2

factor Xa = target: T2, factor Xa (Homo sapiens, UniProt P00742); assay: Serine protease selectivity, Kass, factor Xa chromogenic assay; format: biochemical; details: apparent association constant
T2 construct: Human factors X, Xa, IXa, XIa, and XIIa are purchased from Enzyme Research Laboratories; purchased Enzyme Research Laboratories, South Bend, Ind
T2 sequence (P00742 235-488 limits assumed): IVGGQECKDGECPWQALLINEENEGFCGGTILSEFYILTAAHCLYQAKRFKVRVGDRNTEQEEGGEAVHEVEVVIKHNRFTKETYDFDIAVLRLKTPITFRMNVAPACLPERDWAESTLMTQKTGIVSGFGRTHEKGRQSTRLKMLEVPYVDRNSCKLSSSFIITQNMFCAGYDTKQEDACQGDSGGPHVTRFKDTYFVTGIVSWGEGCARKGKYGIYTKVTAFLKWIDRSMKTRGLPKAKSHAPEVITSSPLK
T2 sequence (P00742 41-179 partner limits assumed): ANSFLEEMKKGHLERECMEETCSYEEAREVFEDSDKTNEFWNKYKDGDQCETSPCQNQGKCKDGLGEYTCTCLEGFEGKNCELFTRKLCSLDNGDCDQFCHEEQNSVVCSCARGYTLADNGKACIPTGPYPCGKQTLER
Protocol: as §3, §4

[4] = target: T3, tissue plasminogen activator (t-PA) (Homo sapiens, UniProt P00750); assay: Fibrinolytic protease selectivity, Kass, t-PA chromogenic assay; format: biochemical; details: apparent association constant
T3 construct: purchased American Diagnostica, Greenwich, Conn
T3 sequence (P00750 36-562): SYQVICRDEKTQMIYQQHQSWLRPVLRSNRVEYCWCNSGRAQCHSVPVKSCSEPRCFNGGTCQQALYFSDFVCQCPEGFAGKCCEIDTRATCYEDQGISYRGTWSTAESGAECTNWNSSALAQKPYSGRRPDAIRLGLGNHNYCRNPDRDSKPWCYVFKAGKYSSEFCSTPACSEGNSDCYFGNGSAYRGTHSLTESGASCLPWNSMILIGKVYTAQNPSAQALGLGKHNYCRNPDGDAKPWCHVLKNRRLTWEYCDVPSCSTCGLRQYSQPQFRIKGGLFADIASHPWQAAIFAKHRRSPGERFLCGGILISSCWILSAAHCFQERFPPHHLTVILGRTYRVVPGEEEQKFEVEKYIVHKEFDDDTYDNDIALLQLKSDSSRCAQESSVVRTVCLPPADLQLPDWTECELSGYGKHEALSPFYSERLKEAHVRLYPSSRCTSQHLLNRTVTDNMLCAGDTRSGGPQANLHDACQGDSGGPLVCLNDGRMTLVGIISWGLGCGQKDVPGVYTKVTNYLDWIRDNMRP
Protocol: as §3
(§5) Human plasmin is purchased from Boehringer Mannheim, Indianapolis, Indiana; nt-PA is purchased as single chain activity reference from American Diagnostica, Greenwich, Conn.; modified-t-PA6 (mt-PA6) is prepared at Eli Lilly and Company by procedure known in the art (See, Burck, et al., J. Biol. Chem., 265, […] (1990). Plasmin chromogenic substrate H--D--Val--Leu--Lys--p--nitroanilide and tissue plasminogen activator (t-PA) substrate H--D--Ile--Pro--Arg--p--nitroanilide are purchased from Kabi Vitrum, Stockholm, Sweden.

human thrombin = target: T4, human thrombin (Homo sapiens, UniProt P00734); assay: Inhibition of amidase activity of thrombin (Kass), chromogenic substrate; format: biochemical; details: apparent association constant, mean over a range of concentrations
T4 construct: purified human thrombin, Enzyme Research Laboratories; purchased Enzyme Research Laboratories, South Bend, Indiana
Protocol: The assay is carried out by mixing 50 μL buffer (0.03 M Tris, 0.15 M NaCl, pH 7.4) with 25 μL of bovine thrombin or human thrombin solution (0.21 mg/mL of thrombostat bovine thrombin, Parke-Davis, or purified human thrombin, Enzyme Research Laboratories, South Bend, Indiana, at about 8 NIH units/mL, in the same buffer) and 25 μL of test compound in a solvent (in 50% aqueous methanol, v:v). The 150 μL of an aqueous solution of the chromogenic substrate (at 0.25 mg/mL) are added and the rates of hydrolysis of the substrate are measured by monitoring the reactions at 405 nm for the release of p-nitroaniline. Standard curves are constructed by plotting free thrombin concentration against hydrolysis rate. The hydrolysis rates observed with test compounds are then converted to "free thrombin" values in the respective assays by use of the standard curves. The bound thrombin (bound to test compound) is calculated by subtracting the amount of free thrombin observed in each assay from the known initial amount of thrombin used in the assay. The amount of free inhibitor in each assay is calculated by subtracting the number of moles of bound thrombin from the number of moles of added inhibitor (test compound).
The Kass value is the hypothetical equilibrium constant for the reaction between thrombin and the test compound (I). [formula]
Kass is calculated for a range of concentrations of test compounds and the mean value is reported in units of liter per mole.

Human plasmin = target: T5, Human plasmin (Homo sapiens, UniProt P00747); assay: Fibrinolytic protease selectivity, Kass, plasmin chromogenic assay; format: biochemical; details: apparent association constant
T5 construct: Human plasmin is purchased from Boehringer Mannheim; purchased Boehringer Mannheim, Indianapolis, Indiana
T5 sequence (P00747 581-810 limits assumed): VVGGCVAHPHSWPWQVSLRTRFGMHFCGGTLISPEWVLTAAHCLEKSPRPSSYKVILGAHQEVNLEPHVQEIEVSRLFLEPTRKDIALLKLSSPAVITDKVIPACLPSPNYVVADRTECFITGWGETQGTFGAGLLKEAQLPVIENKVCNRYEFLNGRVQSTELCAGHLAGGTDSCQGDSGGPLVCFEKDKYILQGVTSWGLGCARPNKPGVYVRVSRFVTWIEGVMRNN
T5 sequence (P00747 97-580 partner limits assumed): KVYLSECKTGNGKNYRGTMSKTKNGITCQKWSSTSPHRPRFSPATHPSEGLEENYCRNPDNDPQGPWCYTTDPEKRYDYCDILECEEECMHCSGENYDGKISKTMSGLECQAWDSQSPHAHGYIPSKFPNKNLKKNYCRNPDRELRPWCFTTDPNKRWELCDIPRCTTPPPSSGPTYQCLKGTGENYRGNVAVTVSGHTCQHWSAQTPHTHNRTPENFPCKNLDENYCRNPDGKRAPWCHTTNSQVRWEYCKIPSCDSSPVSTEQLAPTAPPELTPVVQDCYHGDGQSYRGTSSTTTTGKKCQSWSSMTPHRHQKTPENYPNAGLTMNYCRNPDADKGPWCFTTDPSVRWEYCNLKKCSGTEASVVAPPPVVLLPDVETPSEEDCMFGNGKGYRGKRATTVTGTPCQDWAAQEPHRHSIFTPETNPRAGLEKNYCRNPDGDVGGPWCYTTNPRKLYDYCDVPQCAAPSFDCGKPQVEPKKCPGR
Protocol: as §3, §5

Enzyme Kass Trypsin (Bovine trypsin) | Enzyme Kass Xa (factor Xa) | Enzyme Kass t-PA [4] | Enzyme Kass Human Thrombin (human thrombin) | Enzyme Kass Plasmin (Human plasmin) | SMILES | Human Plasma Anticoagulation 2 × Clotting time TT (human plasma [1]) | Human Plasma Anticoagulation 2 × Clotting time APTT (human plasma [2]) | Human Plasma Anticoagulation 2 × Clotting time PT (human plasma [3])
0.48 L/mol × 10^6 | 0.051 L/mol × 10^6 | 0.001 L/mol × 10^6 | 0.83 L/mol × 10^6 | 0.015 L/mol × 10^6 | Cl.Cl.N=C(N)NCCC[C@@H](C=O)NC(=O)CN(CCC(=O)O)C(=O)[C@H]1CCCCN1 [Example 13, D--hPro--N(CH2 CH2 COOH)Gly--ArgH.2HCl] | 800 ng/mL | 21,000 ng/mL | 27,000 ng/mL
1.1 L/mol × 10^6 | 0.47 L/mol × 10^6 | 0.001 L/mol × 10^6 | 5.1 L/mol × 10^6 | 0.34 L/mol × 10^6 | Cl.Cl.NC(N)=NCCC[C@@H](C=O)NC(=O)CN(CCc1ccccc1)C(=O)[C@H]1CCCN1 [Example 18, D--Pro--N(CH2 CH2 Ph)Gly--ArgH.2HCl] | 170 ng/mL | 3,300 ng/mL | 3,900 ng/mL
10 L/mol × 10^6 | 0.25 L/mol × 10^6 | 0.010 L/mol × 10^6 | 11 L/mol × 10^6 | 0.13 L/mol × 10^6 | Cl.Cl.N=C(N)NCCC[C@@H](C=O)NC(=O)CN(Cc1ccccc1)C(=O)[C@H]1CCCCN1 [Example 7, D--hPro--N(Bn)Gly--ArgH.2HCl] (H-[dPip]-[Nphe]-Arg-aldehyde) | 120 ng/mL | 3,700 ng/mL | 4,400 ng/mL
1.6 L/mol × 10^6 | 0.060 L/mol × 10^6 | 0.002 L/mol × 10^6 | 24 L/mol × 10^6 | 0.050 L/mol × 10^6 | CC(C)CN(CC(=O)N[C@H](C=O)CCCNC(=N)N)C(=O)[C@H]1CCCCN1.Cl.Cl [Example 5, D--hPro--N(i--Bu)Gly--ArgH.2HCl] (H-[dPip]-[Nleu]-Arg-aldehyde) | 100 ng/mL | 3,800 ng/mL | 4,900 ng/mL
0.22 L/mol × 10^6 | 0.11 L/mol × 10^6 | < 0.001 L/mol × 10^6 | 0.64 L/mol × 10^6 | 0.22 L/mol × 10^6 | Cl.Cl.N=C(N)NCCC[C@@H](C=O)NC(=O)CN(CCc1ccccc1)C(=O)[C@@H]1CCCN1 [Example 19, L--Pro--N(CH2 CH2 Ph)Gly--ArgH.2HCl] | 490 ng/mL | 10,000 ng/mL | 10,000 ng/mL

Further lines, the molecule ahead of its results:

SMILES | Enzyme Kass Trypsin (Bovine trypsin) | Enzyme Kass Xa (factor Xa) | Enzyme Kass t-PA [4] | Enzyme Kass Human Thrombin (human thrombin) | Enzyme Kass Plasmin (Human plasmin) | Human Plasma Anticoagulation 2 × Clotting time TT (human plasma [1]) | Human Plasma Anticoagulation 2 × Clotting time APTT (human plasma [2]) | Human Plasma Anticoagulation 2 × Clotting time PT (human plasma [3])
CNCC(=O)N(CCc1ccccc1)CC(=O)N[C@H](C=O)CCCNC(=N)N.Cl.Cl [Example 17, Sar--N(CH2 CH2 Ph)Gly--ArgH.2HCl] | 0.38 L/mol × 10^6 | 2.2 L/mol × 10^6 | 0.001 L/mol × 10^6 | 2.9 L/mol × 10^6 | 0.20 L/mol × 10^6 | 150 ng/mL | 2,200 ng/mL | 2,700 ng/mL
CCCN(CC(=O)N[C@H](C=O)CCCNC(=N)N)C(=O)[C@H]1CCCCN1.Cl.Cl [Example 3, D-homoprolyl-N-n-propylglycyl-L-argininal dihydrochloride] | 2.4 L/mol × 10^6 | 0.084 L/mol × 10^6 | 0.004 L/mol × 10^6 | 34 L/mol × 10^6 | 0.045 L/mol × 10^6 | 77 ng/mL | 2,100 ng/mL | 2,000 ng/mL
Cl.Cl.NC(N)=NCCC[C@@H](C=O)NC(=O)CN(CCC1CCCCC1)C(=O)[C@H]1CCCCN1 [Example 10, D--hPro--N(cyclohexyl--CH2 CH2)Gly--ArgH.2HCl] | 5.8 L/mol × 10^6 | 0.22 L/mol × 10^6 | 0.007 L/mol × 10^6 | 5.4 L/mol × 10^6 | 0.33 L/mol × 10^6 | 230 ng/mL | 4,100 ng/mL | 6,900 ng/mL

From patent publication US6090787A, “Antithrombotic agents” (Eli Lilly and Company, priority 1999, dated 2000)
